Measurements taken from patent publication US20100317525A1, “HERBICIDAL MIXTURE” (E.I. DU PONT DE NEMOURS AND COMPANY, priority 2007, published 2010).

Tested on: Digitaria nuda
Assay: Test A: postemergence greenhouse control of Digitaria nuda, visual rating
Assay type: in vivo
Conditions: postemergence 3-4-leaf stage, 7 DAT, mean of 3 replicates
Description: Plastic pots (10-cm square) were filled to the rim with a sandy loam soil having pH of 6.1, 1.4% organic matter and a cation exchange capacity (CEC) of 5.7 milliequivalents per 100 grams (meq/100 g). The soil was tamped firm to a uniform level of 2.5 cm below the rim of each pot. A measured amount of seeds of Digitaria nuda were scattered on the soil surface. Seeded pots were covered with approximately 50 mL of the same planting soil and tamped. The pots were then placed in a greenhouse and watered thoroughly 2-3 times daily as needed. A balanced fertilizer solution was injected into the watering system to provide 218 ppm of nitrogen. Artificial lighting was used to supplement natural light to produce a 14 h photoperiod. Greenhouse temperatures were targeted for 28.8 ° C. in the day and 19.8 ° C. at night.
When the D. nuda plants reached the 3-4-leaf growth stage (8-12 cm height), the pots were sorted into test units for herbicide application. Treatments were replicated three times. The herbicides were diluted in a measured amount of water and then mixed using a magnetic stir bar for 10 minutes before aliquots were taken to make individual treatment solutions. Diuron was in the form of the DuPont product KARMEX, which is a wettable granule formulation containing 80 weight % active ingredient. Hexazinone was in the form of the DuPont product VELPAR DF, which is a wettable granule formulation containing 75 weight % active ingredient. A mixture of hexazinone and diuron in 11:39 weight ratio was in the form of the DuPont product VELPAR-K (VELPAR-K4) 60 WG, which is a wettable granule formulation containing 13.2 weight % hexazinone and 46.8 weight % diuron active ingredients. A mixture of hexazinone and diuron in 1:8 weight ratio was in the form of the DuPont product VELPAR-K8 (marketed in Brazil as ADVANCE Herbicide), which is a wettable granule formulation containing 6.7 weight % hexazinone and 53.3 weight % diuron active ingredients. Tembotrione was in the form of the Bayer product LAUDIS, which was a suspension concentrate formulation stated to contain […] tembotrione active ingredient and 22 g isoxadifen-ethyl (a herbicide safener) per liter. These products were applied alone and in combinations. Application rates of diuron and hexazinone were 1800 and 210 g ai ha^−1, respectively. The application rates of the VELPAR-K4 mixture of hexazinone and diuron (132 g a.i. hexazinone+468 g a.i. diuron/kg of formulated product) and VELPAR-K8 mixture of hexazinone and diuron (67 g a.i. hexazinone+533 g a.i. diuron/kg of formulated product) were 1200 and 1800 g total a.i. ha^−1, respectively. Application rates of tembotrione were 30, 60, 90 and 120 g a.i./ha. (“a.i.” means active ingredient.) The pots were then sprayed through a T-Jet 8002E nozzle using a stationary belt sprayer calibrated to deliver 281 L/ha at 276 kPa. Treatments were replicated three times.
The plants were returned to the greenhouse, and then control was visually evaluated relative to the control plants at 7 days after treatment (DAT). A numerical percent rating system was used to describe the response observed from each treatment on a scale of 0 to 100%, in which 0% indicates no response and 100% indicates plant death or near death. The reported results are the mean averages of the three replicates.
Colby's Equation was used to determine the herbicidal effects expected from the mixtures. […]

SMILES	% Control Observed (diuron 1800 g a.i./ha (as KARMEX))	% Control Observed (tembotrione 30 g a.i./ha (as LAUDIS))	% Control Observed (tembotrione 60 g a.i./ha (as LAUDIS))	% Control Observed (tembotrione 90 g a.i./ha (as LAUDIS))	% Control Observed (tembotrione 120 g a.i./ha (as LAUDIS))
CN(C)C(=O)Nc1ccc(Cl)c(Cl)c1 [Diuron, N′(3,4-dichlorophenyl)-N,N-dimethylurea]	20%	–	–	–	–
CS(=O)(=O)c1ccc(C(=O)C2C(=O)CCCC2=O)c(Cl)c1COCC(F)(F)F [Tembotrione, 2-[2-chloro-4-(methylsulfonyl)-3-[(2,2,2-trifluoroethoxy)methyl]-benzoyl]-1,3-cyclohexanedione]	–	37%	40%	53%	60%
